IC50 data for two compounds are collected here from the Kinase Knowledgebase extract (Sharma et al. 2016).

The target of the experiment is EGFR (human) (UniProt P00533). The note with it: mda-mb-231.
EGFR (human), sequence (P00533 whole entry, looked up): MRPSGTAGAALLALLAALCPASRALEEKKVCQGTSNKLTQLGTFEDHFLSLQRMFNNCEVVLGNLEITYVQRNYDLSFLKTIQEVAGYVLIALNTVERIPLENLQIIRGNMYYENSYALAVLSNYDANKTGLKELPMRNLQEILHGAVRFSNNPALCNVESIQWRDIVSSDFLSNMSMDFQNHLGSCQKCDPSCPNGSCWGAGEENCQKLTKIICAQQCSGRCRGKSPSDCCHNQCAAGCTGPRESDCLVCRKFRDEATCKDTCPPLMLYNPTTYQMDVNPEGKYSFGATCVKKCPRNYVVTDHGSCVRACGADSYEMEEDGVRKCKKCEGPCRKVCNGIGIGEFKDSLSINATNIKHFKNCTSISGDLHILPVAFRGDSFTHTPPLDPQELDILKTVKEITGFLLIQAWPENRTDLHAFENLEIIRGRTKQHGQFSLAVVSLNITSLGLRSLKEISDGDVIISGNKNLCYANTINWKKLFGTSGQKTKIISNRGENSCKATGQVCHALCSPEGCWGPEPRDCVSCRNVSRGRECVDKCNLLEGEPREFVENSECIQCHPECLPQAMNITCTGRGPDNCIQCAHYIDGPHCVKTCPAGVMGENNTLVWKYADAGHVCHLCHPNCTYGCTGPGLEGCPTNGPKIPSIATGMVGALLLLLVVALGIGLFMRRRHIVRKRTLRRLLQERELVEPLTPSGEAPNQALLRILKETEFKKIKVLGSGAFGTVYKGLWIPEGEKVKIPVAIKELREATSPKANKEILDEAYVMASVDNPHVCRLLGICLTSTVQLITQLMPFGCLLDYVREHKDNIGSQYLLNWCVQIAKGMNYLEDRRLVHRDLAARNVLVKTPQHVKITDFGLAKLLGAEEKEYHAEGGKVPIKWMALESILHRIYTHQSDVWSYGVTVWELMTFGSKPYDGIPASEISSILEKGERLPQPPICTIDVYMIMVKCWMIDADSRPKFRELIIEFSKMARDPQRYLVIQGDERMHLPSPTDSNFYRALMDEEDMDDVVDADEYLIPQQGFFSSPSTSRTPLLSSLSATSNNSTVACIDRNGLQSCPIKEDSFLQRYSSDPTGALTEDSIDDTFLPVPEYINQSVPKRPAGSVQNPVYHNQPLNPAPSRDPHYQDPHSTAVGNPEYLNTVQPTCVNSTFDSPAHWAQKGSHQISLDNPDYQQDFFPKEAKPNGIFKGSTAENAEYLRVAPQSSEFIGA

With `Cc1oncc1C(=O)Nc1ccc(C(F)(F)F)cc1`, the IC50 stood at 97 µM.
The compound `C/C(O)=C(/C#N)C(=O)Nc1ccc(OC(F)(F)F)cc1` gave an IC50 of 28.4 µM.

For orientation: IC50 means the concentration that gives 50% inhibition. A low value points to greater potency.
